As a reminder, the EC50 is the concentration that produces a half-maximal response.

Structures are written as SMILES.

One test has as its system enoxaparin (ENOX). Put plainly: FXa chromogenic assay (absence of plasma), enoxaparin. Particulars: enoxaparin 0.1 μg/mL, absence of plasma.
The subject of a further test is fondaparinux (FONDAPX). As to the kind of experiment: FXa chromogenic assay (absence of plasma), fondaparinux. Particulars: fondaparinux 0.02 μg/mL, absence of plasma.
The subject of the next test is Unfractionated heparin. As to the kind of experiment: aPTT clotting assay, UFH 0.4 U/mL in plasma (Example 10). In kind it is biochemical. Particulars: unfractionated heparin 0.4 U/mL in plasma; aPTT clotting. Here is the method: aPTT clotting Assay: Unfractionated heparin was mixed with plasma at a final concentration of 0.4 U/mL (or concentration which increases aPTT time to between 120 and 300 seconds). […] The ACL Elite Hemostasis analyzer (Beckman Coulter™) was used to add aPTT reagent (HemosIL SynthASil) to supplemented plasma. Clotting was initiated by addition of CaCl2 and time to clot was recorded.

Another test has as its system enoxaparin. As to the kind of experiment: FXa amidolytic assay (Example 10), enoxaparin. Particulars: read-out: Enox FXa EC50; enoxaparin 0.1 ug/ml; human antithrombin, bovine Factor Xa.
The next test has as its system tinzaparin. Put plainly: FXa amidolytic assay (Example 10), tinzaparin. Particulars: read-out: Tinzap FXa EC50; tinzaparin 0.1 ug/ml; human antithrombin, bovine Factor Xa.
The test system of a further test is fondaparinux. As to the kind of experiment: FXa amidolytic assay (Example 10), fondaparinux. As to conditions: read-out: Fondap FXa EC50; fondaparinux 0.02 μg/mL; human antithrombin, bovine Factor Xa.

Description for enoxaparin (ENOX): Human antithrombin was mixed with an anticoagulant agent (a LMWH or fondaparinux); final concentrations were 0.22 μg/mL for the LMWHs and 0.07 μg/mL for fondaparinux. […] Absorbance was read every 30 seconds over a 4 minute period in a SpectraMax 250 instrument (Molecular Devices, Inc.). EC50 values are determined by a curve-fit program (SoftMax Pro) using the following formula:
FXa Chromogenic Assay (absence of plasma). Human antithrombin was mixed with an anticoagulant (a LMWH or fondaparinux); final concentrations were 0.1 μg/mL for the LMWHs and 0.02 μg/mL for fondaparinux. […] Absorbance was read every 30 seconds over a 4 minute period in a SpectraMax 250 instrument (Molecular Devices Inc.™) The slope of absorbance vs time was calculated for each compound concentration. EC50 values were determined using a curve fit program (GraphPad Prism 5).
Description for tinzaparin: Two μl of test agent are added (range between 0.01 and 23 ug/ml) and incubated for 5 minutes at 23° C. Bovine Factor Xa was added to a final concentration of 0.636 nkat/mL and incubated for a further 10 minutes at 23° C.

With `COc1ccc(NC(=O)[C@@H](CCCCN)NC(=O)c2cc(NC(=O)[C@@H](CCCNC(=N)N)NC(=O)c3cc(NC(=O)[C@@H](CCCCN)NC(=O)c4cc(NC(=O)[C@H](N)CCCCN)ccc4OC)ccc3OC)ccc2OC)cc1C(N)=O` [Compound 32], in the test on enoxaparin (ENOX), the “ENOX (FXa) EC50” value stood at 30.00 µg/mL. In addition, the “FONDAPX (FXa) EC50” value in the test with fondaparinux (FONDAPX) is “inactive”.

As to `COc1ccc(NC(=O)[C@@H](CCCNC(=N)N)NC(=O)c2cc(NC(=O)[C@@H](C)NC(=O)c3cc(NC(=O)[C@@H](CCCNC(=N)N)NC(=O)c4cc(NC(=O)[C@H](N)CCCNC(=N)N)ccc4OC)ccc3OC)ccc2OC)cc1C(N)=O` [Compound 14], the “ENOX (FXa) EC50” value in the test on enoxaparin (ENOX) stood at 2.04 µg/mL. In addition, the “FONDAPX (FXa) EC50” value with fondaparinux (FONDAPX) worked out at 10.31 µg/mL.

For `COc1ccc(NC(=O)[C@@H](CCCNC(=N)N)NC(=O)c2cc(NC(=O)[C@@H](CCCNC(=N)N)NC(=O)c3cc(NC(=O)[C@@H](C)NC(=O)c4cc(NC(=O)[C@H](N)CCCNC(=N)N)ccc4OC)ccc3OC)ccc2OC)cc1C(N)=O` [Compound 15], the “ENOX (FXa) EC50” value with enoxaparin (ENOX) was 0.92 µg/mL. Also, in the test with fondaparinux (FONDAPX), the “FONDAPX (FXa) EC50” value was 7.84 µg/mL.

For `COc1ccc(NC(=O)[C@H](N)CCCNC(=N)N)cc1C(=O)N[C@H](CCCNC(=N)N)C(=O)Nc1ccc(OC)c(C(=O)N[C@H](CCCNC(=N)N)C(=O)Nc2ccc(OC)c(C(=O)N[C@H](CCCNC(=N)N)C(=O)Nc3ccc(OCCNC(=N)N)c(C(N)=O)c3)c2)c1` [Compound 18], the “ENOX (FXa) EC50” value with enoxaparin (ENOX) was found to be 0.57 µg/mL.

Consider `COc1ccc(NC(=O)[C@@H](CCCNC(=N)N)NC(=O)c2cc(NC(=O)[C@@H](CCCNC(=N)N)NC(=O)c3cccc(NC(=O)[C@@H](CCCNC(=N)N)NC(=O)c4cccc(NC(=O)[C@H](N)CCCNC(=N)N)c4)c3)ccc2OC)cc1C(N)=O` [Compound 22], for which the “ENOX (FXa) EC50” value in the test on enoxaparin (ENOX) amounted to 0.56 µg/mL. Also, the “FONDAPX (FXa) EC50” value in the test on fondaparinux (FONDAPX) worked out at 7.63 µg/mL.

For `COc1ccc(NC(=O)[C@H](CCCN)NC(=O)c2cc(NC(=O)[C@H](CCCN)NC(=O)c3cc(NC(=O)[C@H](CCCN)NC(=O)c4cc(NC(=O)[C@@H](N)CCCN)ccc4OC)ccc3OC)ccc2OC)cc1C(N)=O` [Compound 89], the “ENOX (FXa) EC50” value in the test on enoxaparin (ENOX) was 16.70 µg/mL.

For `COc1ccc(NC(=O)[C@H](N)CCCNC(=N)N)cc1C(=O)N[C@H](CCCNC(=N)N)C(=O)Nc1ccc(OC)c(C(=O)N[C@H](CCCNC(=N)N)C(=O)Nc2ccc(OCCNC(=N)N)c(C(=O)N[C@H](CCCNC(=N)N)C(=O)Nc3ccc(OCCNC(=N)N)c(C(N)=O)c3)c2)c1` [Compound 10], the “ENOX (FXa) EC50” value in the test with enoxaparin (ENOX) was determined as 1.43 µg/mL.

Take `N=C(N)NCCC[C@@H](N)C(=O)Nc1ccc(OCCNC(=N)N)c(C(=O)N[C@H](CCCNC(=N)N)C(=O)Nc2ccc(OCCNC(=N)N)c(C(=O)N[C@H](CCCNC(=N)N)C(=O)Nc3ccc(OCCNC(=N)N)c(C(=O)N[C@H](CCCNC(=N)N)C(=O)Nc4ccc(OCCNC(=N)N)c(C(N)=O)c4)c3)c2)c1` [Compound 31]: the “ENOX (FXa) EC50” value with enoxaparin (ENOX) came out at 0.72 µg/mL.

For the compound `COc1ccc(NC(=O)[C@H](CCC(=O)O)NC(=O)c2cc(NC(=O)[C@H](CCCNC(=N)N)NC(=O)c3cc(NC(=O)[C@H](CCCNC(=N)N)NC(=O)c4cc(NC(=O)[C@@H](N)CCCNC(=N)N)ccc4OC)ccc3OC)ccc2OC)cc1C(N)=O` [Compound 323], the EC50 in the test with Unfractionated heparin was 2960 nM; in the test with enoxaparin, 326 nM; in the test on tinzaparin it was 250 nM; in the test with fondaparinux, 1160 nM.

Take `COc1ccc(NC(C)=O)cc1C(=O)N[C@@H](CCCNC(=N)N)C(=O)Nc1ccc(OC)c(C(=O)N[C@@H](CCCNC(=N)N)C(=O)Nc2ccc(OC)c(C(=O)N[C@@H](CCCNC(=N)N)C(=O)Nc3ccc(OC)c(C(=O)N[C@H](Cc4ccc(O)cc4)C(=O)O)c3)c2)c1` [Compound 302]: the EC50 worked out at 10600 nM with Unfractionated heparin, 298 nM with enoxaparin, 278 nM with tinzaparin and 491 nM with fondaparinux.

For `COc1ccc(NC(=O)[C@H](CCCCN)NC(=O)c2cc(NC(=O)[C@H](CCCCN)NC(=O)c3cc(NC(=O)[C@@H](N)CCCCN)ccc3OC)ccc2OC)cc1C(=O)N[C@@H](CCCCN)C(=O)Nc1ccc(OCC(=O)O)c(C(N)=O)c1` [Compound 269], the EC50 was determined as 1780 nM in the test with Unfractionated heparin, 247 nM with enoxaparin, 165 nM with tinzaparin and 5110 nM in the test with fondaparinux.

The record behind these values is patent US20110178104A1, “Anti-Heparin Compounds” (POLYMEDIX INC., priority 2010, published 2011).
